Measurements: patent US9845306B2, “Cationic lipid” (Kyowa Hakko Kirin Co., Ltd., priority 2010, dated 2017)

Test: Average particle diameter of the liposomes in each preparation (Zetasizer Nano ZS)
Format: physicochemical
Conditions: for Particle diameter of Preparetion: liposome preparation of Example 118: compound/PEG-DMPE/DSPC/cholesterol with apo-b siRNA; for average particle diameter of the liposomes in the preparation: preparations of Comparative Examples 1 to 8, made as in Example 118 with apo-b siRNA
Text: Preparations were produced using the compounds obtained in Examples 1 to 117, as follows.
Anti-APO-B siRNA was used as the nucleic acid. Anti-APO-B siRNA suppresses expression of an apolipoprotein-B (hereinafter, “apo-b”) gene and has a sense strand with the base sequence 5′-GmUCAmUCACACmUGAAmUACCAAmU-3′ (the sugars attached to the bases appended with m are 2′-O-methyl-substituted riboses), and an antisense strand with the base sequence 5′-[…]-3′ (the 5′-end is phosphorylated). The sense strand and the antisense strand were obtained from Nippon EGT or Hokkaido System Science Co., Ltd., and annealed to prepare the nucleic acid (hereinafter, “apo-b siRNA”).
A solution comprising the constituent components of a lipid membrane was prepared by dissolving each of the weighed samples in 90 vol % ethanol in 8.947/1.059/5.708/13.697 mmol/L [compounds 1 to 117 obtained in Examples 1 to 117/1,2-dimyristoyl-sn-glycero-3-phosphoethanolamine-A-(methoxy(polyethylene glycol)-2000) (PEG-DMPE, N-(carbonylmethoxypolyethylene glycol 2000)-1,2-dimyristoyl-sn-glycero-3-phosphoethanolamine sodium salt, NOF Corporation)/distearoylphosphatidyl choline (DSPC, 1,2-distearoyl-sn-glycero-3-phosphocholine, NOF Corporation)/cholesterol (Avanti Polar Lipids)]. Separately, apo-b siRNA/distilled water (24 mg/mL) was diluted with a Tris-EDTA buffer (200 mM Tris-HCl, 20 mM EDTA, Invitrogen) and a 20 mM citric acid buffer (pH 5.0) to prepare a 1.5 mg/mL apo-b siRNA aqueous solution (2 mM Tris-EDTA buffer, pH 5.0).
The resulting lipid solution was heated to 37° C., and a […] portion was transferred to a preparation container. The apo-b siRNA aqueous solution (100 μL) was then added thereto while being stirred. Then, a 20 mM citric acid buffer (containing 300 mM NaCl, pH 6.0; 200 μL) was added to the lipid nucleic acid mixed suspension (200 μL) while being stirred. The siRNA concentration was brought to 10 μM by dropping a Dulbecco phosphate buffer (DPBS, Invitrogen; 662 μL), and preparations (compositions comprising compounds 1 to 117 and the nucleic acid) were obtained.
The average particle diameter of the liposomes in each preparation was measured with a particle diameter measurement device (Malvern; Zetasizer Nano ZS).

CCCCC/C=C\C/C=C\CCCCCCCCO[C@@H]1CN(CC(C)O)C[C@H]1OCCCCCCCC/C=C\C/C=C\CCCCC (mixture of isomers) [Compound 54, 1-((3R,4R)-3,4-bis((9Z,12Z)-Octadec-9,12-dienyloxy)pyrrolidine-1-yl)propan-2-ol]
Particle diameter of Preparetion: 148.9 nm

CCCCC/C=C\C/C=C\CCCCCCCC(=O)OC1CN(C(=O)CN)C[C@H]1OC(=O)CCCCCCC/C=C\C/C=C\CCCCC (stereo partly drawn) [Compound 65, (3R,4R)-1-(2-aminoacetyl)pyrrolidine-3,4-diyl di((9Z,12Z)-octadec-9,12-enoate)]
Particle diameter of Preparetion: 128.9 nm

CCCCC/C=C\C/C=C\CCCCCCCC(=O)O[C@@H]1CN(C)C[C@H]1OC(=O)CCCCCCC/C=C\C/C=C\CCCCC [Compound A-3, (3R,4R)-1-Methylpyrrolidine-3,4-diyl di((9Z,12Z)-octadec-9,12-dienoate), reference compound]
average particle diameter of the liposomes in the preparation: 141.0 nm

CCCCC/C=C\C/C=C\CCCCCCCC(=O)OC1CN(C(=O)[C@@H](N)CCCCN)C[C@H]1OC(=O)CCCCCCC/C=C\C/C=C\CCCCC (stereo partly drawn) [Compound 66, (3R,4R)-1-((S)-2,6-Diaminohexanoyl)pyrrolidine-3,4-diyl di((9Z,12Z)-octadec-9,12-enoate)]
Particle diameter of Preparetion: 137.4 nm

CCCCC/C=C\C/C=C\CCCCCCCCOC1CN(CCC(=O)N(C)C)C[C@H]1OCCCCCCCC/C=C\C/C=C\CCCCC (stereo partly drawn) [Compound 58, 3-((3R,4R)-3,4-bis((9Z,12Z)-Octadec-9,12-dienyloxy)pyrrolidin-1-yl)-N,N-dimethyl propanamide]
Particle diameter of Preparetion: 151.8 nm

CCCCCCCC/C=C\CCCCCCCC(=O)OCC(C[N+](C)(C)C)OC(=O)CCCCCCC/C=C\CCCCCCCC.[Cl-] (centres unmarked) [DOTAP, N-(2,3-di-(9-(Z)-octadecenoyloxy))-prop-1-yl-N,N,N-trimethylammonium chloride, reference compound]
average particle diameter of the liposomes in the preparation: 104.0 nm

CCCCCCCC/C=C\CCCCCCCC(=O)O[C@@H]1CN(C)C[C@H]1OC(=O)CCCCCCC/C=C\CCCCCCCC [Compound A-4, (3R,4R)-1-Methylpyrrolidine-3,4-diyl di((Z)-octadec-9-enoate), reference compound]
average particle diameter of the liposomes in the preparation: 131.1 nm

CCCCC/C=C\C/C=C\CCCCCCCCO[C@H]1CNC[C@@H]1OCCCCCCCC/C=C\C/C=C\CCCCC [Compound 43, (3S,4S)-3,4-bis((9Z,12Z)-Octadec-9,12-dienyloxy)pyrrolidine]
Particle diameter of Preparetion: 150.0 nm

CCCCCCCC/C=C\CCCCCCCC(=O)OCCN(C)CCOC(=O)CCCCCCC/C=C\CCCCCCCC [Compound A-6, N-Methyl-N,N-bis(2-((Z)-1-oxooctadec-9-enyloxy)ethyl)amine, reference compound]
average particle diameter of the liposomes in the preparation: 139.5 nm

CCCCC/C=C\C/C=C\CCCCCCCC(=O)OC1CN(CC(O)CO)C[C@H]1OC(=O)CCCCCCC/C=C\C/C=C\CCCCC (stereo partly drawn) [Compound 53, (3R,4R)-1-(2,3-diHydroxypropyl)pyrrolidine-3,4-diyl di((9Z,12Z)-octadec-9,12-enoate)]
Particle diameter of Preparetion: 152.4 nm

CCCCCCCC/C=C\CCCCCCCCO[C@@H]1CN(Cc2ccccc2)C[C@H]1OCCCCCCCC/C=C\CCCCCCCC [Compound VI-4, (3R,4R)-1-Benzyl-3,4-bis((Z)-octadec-9-enyloxy)pyrrolidine, reference compound]
average particle diameter of the liposomes in the preparation: 157.8 nm

CCCCC/C=C\C/C=C\CCCCCCCCOC1CN(CC(O)COC)C[C@H]1OCCCCCCCC/C=C\C/C=C\CCCCC (stereo partly drawn) [Compound 55, 1-(3R,4R)-3,4-bis(((9Z,12Z)-Octadec-9,12-dienyloxy)pyrrolidine-1-yl)-3-methoxypropan-2-ol]
Particle diameter of Preparetion: 139.6 nm

CCCCC/C=C\C/C=C\CCCCCCCCO[C@@H]1CN(Cc2ccccc2)C[C@H]1OCCCCCCCC/C=C\C/C=C\CCCCC [Compound VI-3, (3R,4R)-1-Benzyl-3,4-bis((9Z,12Z)-octadec-9,12-dienyloxy)pyrrolidine, reference compound]
average particle diameter of the liposomes in the preparation: 167.8 nm

CCCCC/C=C\C/C=C\CCCCCCCCO[C@H]1CN(C)C[C@@H]1OCCCCCCCC/C=C\C/C=C\CCCCC [Compound 50, (3S,4S)-1-Methyl-3,4-bis((9Z,12Z)-octadec-9,12-dienyloxy)pyrrolidine]
Particle diameter of Preparetion: 129.2 nm

CCCCC/C=C\C/C=C\CCCCCCCCOC1CN(CCCN(C)C)C[C@H]1OCCCCCCCC/C=C\C/C=C\CCCCC (stereo partly drawn) [Compound 59, (3R,4R)-1-(3-N,N-Dimethylaminopropyl)-3,4-bis((9Z,12Z)-octadec-9,12-dienyloxy)pyrrolidine]
Particle diameter of Preparetion: 116.7 nm

CCCCC/C=C\C/C=C\CCCCCCCC(=O)OCCN(C)CCOC(=O)CCCCCCC/C=C\C/C=C\CCCCC [Compound A-5, N-Methyl-N,N-bis(2-((9Z,12Z)-1-oxooctadec-9,12-dienyloxy)ethyl)amine, reference compound]
average particle diameter of the liposomes in the preparation: 136.4 nm

CCCCC/C=C\C/C=C\CCCCCCCCCCOCC1CN(C(=O)[C@@H](N)CCCCN)C[C@H]1COCCCCCCCCCC/C=C\C/C=C\CCCCC (stereo partly drawn) [Compound 115, trans-1-((S)-2,6-Diaminohexanoyl)-3,4-bis(((11Z,14Z)-icos-11,14-dienyloxy)methyl) pyrrolidine]
Particle diameter of Preparetion: 152.8 nm
